Experimental data from publication PMC2192203 (The Journal of Experimental Medicine, 1995).

How the values were obtained:
[1] = test system: I-Ek MHC class II molecules; conditions: Fig. 2 A legend; control peptide; no reference given; cited from earlier work
[2] = test system: lymph node cells from mice immunized with the peptide; conditions: syngeneic B10.A mice; cited from earlier work
[3] = test system: MHC class II-restricted presentation by APCs; conditions: cited from earlier work
[4] = test system: lymph node cells from mice immunized with the peptide; assay: Lymph node / spleen T cell proliferation assay of peptide-immunized mice; type: cell-based, mouse
[5] = test system: CD4+ T cell line P69.2 (Ed-restricted, Ld 61-80-specific); assay: T cell line P69.2 proliferation assay; type: cell-based, mouse; conditions: for natural presentation of self-peptide: no exogenously added peptide
[6] = test system: BALB/c-dm2 lymph node T cells primed with Ld 61-80; assay: T cell determinant mapping with overlapping 12 mers; type: cell-based, mouse; conditions: dm2 mice primed with Ld 61-80, single residue steps, Fig. 4
[7] = test system: T cells from Ld 61-80-primed B10.A mice; conditions: H-2k class II-restricted; cited from earlier work
[8] = test system: CD4+ T cell line B10.A-P11.2 (Ek-restricted, Ld 61-80-specific); assay: T cell line B10.A-P11.2 proliferation assay; type: cell-based, mouse; conditions: no added peptide
[9] = molecular target: I-Ed MHC class II molecules (Mus musculus, UniProt P01904+P01915); conditions: Fig. 2 B legend; control peptide; no reference given; cited from earlier work

## HEL 1-17: known binder peptide in the I-Ek competition assay (KVFGRCELAAAMKRHGL; UniProt P00698 19-35, looked up, fragment)
[1]
  binding to I-Ek (control designation): known binder

## EtLITQIAKGQEQWFILVNLR,T [Ld 61-80]
[2]
  T cell response induced: potent MHC class II-restricted T cell responses
[3]; BALB/c APCs, self-MHC class II
  in vitro presentation by BALB/c APCs: regularly presented in vitro
[3]; Ii-positive and -negative APCs
  stimulation of Ld 61-80-specific class II-restricted T cell hybridoma: could be stimulated in the presence of both Ii- positive and -negative APCs
[3]
  TAP-1 requirement of class II presentation: does not require a functional TAP-1 protein
[4]; (B10.A x B10.D2) F1 mice (Fig. 1 D)
  immunogenicity: immunogenic and therefore cryptic
[4]; A.TL and B10.MBR mice
  phenotype of self-peptide (cryptic or dominant): cryptic
[4]; A/J mice (Table 1)
  immunogenicity: vigorous T cell responses
[4]; B10.A(5R) mice
  phenotype of self-peptide (cryptic or dominant): dominant
[4]; B10.A(5R) mice (Fig. 6), five mice tested individually
  T cell proliferation after immunization: no T cell proliferation was detected
[4]; B10.AKM mice (Table 2)
  immunogenicity: immunogenic
[4]; B10.D2 mice (Table 1)
  immunogenicity: failed to respond
[4]; BALB/c mice (Fig. 1 B)
  immunogenicity: nonimmunogenic
[4]; DBA/2 mice (Table 1)
  immunogenicity: nonimmunogenic
[4]; dm2 mutant mice, not expressing Ld (Fig. 1 C)
  immunogenicity: immunogenic
[4]; parental H-2s and H-2b mice
  phenotype of self-peptide (cryptic or dominant): dominant
[5]; (B10.A x B10.D2) F1 APCs, Fig. 3 C
  natural presentation of self-peptide: could not spontaneously process and present
[5]; B10.GD splenocytes (lacking Ed) as APCs
  stimulation of P69.2 in presence of specific peptide: could not stimulate
[5]; BALB/c APCs, Fig. 3 B
  natural presentation of self-peptide: continuously process and present
[5]; dm2 APCs, 60 h, [3H]thymidine last 12 h, Fig. 3 B
  stimulation of P69.2 by added peptide: required
[6]
  core region of determinant (residues): 69-76
[7]
  core region of determinant (residues): 66-74
[8]; B10.A splenocytes, Fig. 3 A
  natural presentation of self-peptide: did not naturally process
[8]; B10.A(5R) APCs, Fig. 7
  natural presentation of self-peptide: present spontaneously

## HEL 105-120: hen egg white lysozyme (HEL) 105-120 peptide known for its binding to Ed (MNAWVAWRNRCKGTDV; UniProt P00698 123-138, looked up, fragment)
[9]
  binding to I-Ed (control designation): known binder
